Measurements from ChEMBL document CHEMBL5465560, “Selectivity Literature for EUbOPEN Chemogenomic Library” (2024).
Each block holds one compound with its values, some of them ahead of it.

Assays:
[1] = target: Histone-lysine N-methyltransferase ASH1L (Homo sapiens) (UniProt Q9NR48); assay: Selectivity interaction (Methyltransferase screen (radiometric assays, panel of 8 PRMTs, 21 protein lysine methyltransferases, 3 DNA methyltransferases, and one RNA methyltransferase)) EUB0000271b ASH1L
[2] = target: Serine/threonine-protein kinase N2 (Homo sapiens, UniProt Q16513); assay: Selectivity interaction (KinomeScan (DiscoverX)) EUB0001079a PKN2; details: at 1 µM
[3] = target: T1, Ephrin type-B receptor 4 (Homo sapiens) (UniProt P54760); assay: Selectivity interaction (SelectScreen profiling (Invitrogen)) EUB0000607a EPHB4; details: at 2 µM
T1 sequence (whole entry): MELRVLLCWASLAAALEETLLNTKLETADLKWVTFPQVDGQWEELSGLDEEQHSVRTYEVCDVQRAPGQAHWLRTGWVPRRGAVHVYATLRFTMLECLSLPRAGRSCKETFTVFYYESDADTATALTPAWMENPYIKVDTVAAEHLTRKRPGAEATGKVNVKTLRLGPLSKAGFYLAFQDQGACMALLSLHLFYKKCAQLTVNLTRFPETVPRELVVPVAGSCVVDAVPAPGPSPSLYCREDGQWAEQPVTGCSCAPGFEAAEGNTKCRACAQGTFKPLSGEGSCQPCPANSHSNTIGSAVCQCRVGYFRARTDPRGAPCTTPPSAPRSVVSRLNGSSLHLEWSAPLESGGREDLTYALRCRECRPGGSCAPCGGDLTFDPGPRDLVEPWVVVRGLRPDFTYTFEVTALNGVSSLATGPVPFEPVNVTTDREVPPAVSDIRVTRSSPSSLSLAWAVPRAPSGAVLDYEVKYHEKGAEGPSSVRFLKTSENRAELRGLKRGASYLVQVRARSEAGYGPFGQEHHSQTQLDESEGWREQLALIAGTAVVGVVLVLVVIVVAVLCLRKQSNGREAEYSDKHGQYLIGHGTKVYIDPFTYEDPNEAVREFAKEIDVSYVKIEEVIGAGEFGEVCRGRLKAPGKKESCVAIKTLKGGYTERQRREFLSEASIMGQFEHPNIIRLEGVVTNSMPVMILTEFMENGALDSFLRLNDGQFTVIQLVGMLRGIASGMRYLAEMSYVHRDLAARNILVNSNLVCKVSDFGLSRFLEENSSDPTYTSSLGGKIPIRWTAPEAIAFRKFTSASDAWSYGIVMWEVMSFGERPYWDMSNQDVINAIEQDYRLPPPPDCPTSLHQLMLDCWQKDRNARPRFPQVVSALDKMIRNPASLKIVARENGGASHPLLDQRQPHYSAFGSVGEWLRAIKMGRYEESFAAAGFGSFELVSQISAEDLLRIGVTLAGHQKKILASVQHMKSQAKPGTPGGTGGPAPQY

[4] = target: Tyrosine-protein kinase FRK (Homo sapiens) (UniProt P42685); assay: Selectivity interaction (SelectScreen profiling (Invitrogen)) EUB0000607a FRK; details: at 2 µM
[5] = target: Serine/threonine-protein kinase Nek7 (Homo sapiens) (UniProt Q8TDX7); assay: Selectivity interaction (ActivX KiNativ screen (ex vivo kinase selectivity in human PBMCs)) EUB0001619a NEK7; format: cell-based; details: PBMC, at 1 µM
[6] = target: Tyrosine-protein kinase SYK (Homo sapiens, UniProt P43405); assay: Selectivity interaction (KinomeScan (DiscoverX)) EUB0000045b SYK
[7] = target: T2, Mitogen-activated protein kinase kinase kinase 7 (Homo sapiens) (UniProt O43318); assay: Selectivity interaction (Kinase panel (KiNativ target engagement assay in Jurkat cells)) EUB0001635a MAP3K7; format: cell-based; details: Selectivity number of off-targets 0.0, Selectivity number of targets 233.0, Source Knowledge https://www.sciencedirect.com/science/article/pii/S2451945619300674?via%3Dihub, at 1 µM
T2 sequence (whole entry): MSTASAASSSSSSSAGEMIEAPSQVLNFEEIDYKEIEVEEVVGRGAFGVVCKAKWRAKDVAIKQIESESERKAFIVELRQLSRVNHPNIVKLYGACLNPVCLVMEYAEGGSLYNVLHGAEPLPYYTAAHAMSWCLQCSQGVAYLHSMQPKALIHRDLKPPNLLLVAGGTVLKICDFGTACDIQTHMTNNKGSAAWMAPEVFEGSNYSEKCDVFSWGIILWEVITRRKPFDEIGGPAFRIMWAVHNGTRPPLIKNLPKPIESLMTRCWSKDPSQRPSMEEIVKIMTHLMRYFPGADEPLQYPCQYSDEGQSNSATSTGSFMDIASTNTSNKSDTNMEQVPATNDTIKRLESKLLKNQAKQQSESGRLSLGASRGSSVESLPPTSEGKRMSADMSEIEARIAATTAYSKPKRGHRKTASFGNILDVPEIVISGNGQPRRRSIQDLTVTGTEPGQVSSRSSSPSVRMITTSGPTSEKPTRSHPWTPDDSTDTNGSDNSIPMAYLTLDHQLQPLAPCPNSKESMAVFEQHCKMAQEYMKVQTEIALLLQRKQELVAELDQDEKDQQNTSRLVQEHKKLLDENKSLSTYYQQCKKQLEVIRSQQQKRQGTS

[8] = target: Insulin receptor-related protein (Homo sapiens) (UniProt P14616); assay: Selectivity interaction (KinomeScan (DiscoverX)) EUB0000229b INSRR; details: at 10 µM
[9] = target: T3, Non-receptor tyrosine-protein kinase TNK1 (Homo sapiens) (UniProt Q13470); assay: Selectivity interaction (ProQinase) EUB0000171b TNK1
T3 sequence (whole entry): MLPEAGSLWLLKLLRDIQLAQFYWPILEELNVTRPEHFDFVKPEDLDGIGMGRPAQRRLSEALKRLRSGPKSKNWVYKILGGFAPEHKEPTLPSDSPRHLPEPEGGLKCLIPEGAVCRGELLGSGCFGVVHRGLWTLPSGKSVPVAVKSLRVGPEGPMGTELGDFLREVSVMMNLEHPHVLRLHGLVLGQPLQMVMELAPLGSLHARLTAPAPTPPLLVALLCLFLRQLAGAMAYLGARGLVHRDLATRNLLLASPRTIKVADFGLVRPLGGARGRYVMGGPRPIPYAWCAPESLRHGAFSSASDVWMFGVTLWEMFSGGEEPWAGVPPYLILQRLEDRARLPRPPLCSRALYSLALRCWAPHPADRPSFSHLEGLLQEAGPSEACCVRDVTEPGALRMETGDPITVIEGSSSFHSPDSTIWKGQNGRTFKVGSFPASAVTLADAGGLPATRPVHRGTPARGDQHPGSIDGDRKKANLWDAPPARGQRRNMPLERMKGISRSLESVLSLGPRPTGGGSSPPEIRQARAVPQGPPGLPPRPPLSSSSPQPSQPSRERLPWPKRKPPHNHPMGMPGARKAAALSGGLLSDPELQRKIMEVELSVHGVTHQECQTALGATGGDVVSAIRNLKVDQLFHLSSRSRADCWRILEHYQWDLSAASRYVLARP

Chain of Insulin receptor-related protein (Homo sapiens) (P14616 27-742 limits assumed): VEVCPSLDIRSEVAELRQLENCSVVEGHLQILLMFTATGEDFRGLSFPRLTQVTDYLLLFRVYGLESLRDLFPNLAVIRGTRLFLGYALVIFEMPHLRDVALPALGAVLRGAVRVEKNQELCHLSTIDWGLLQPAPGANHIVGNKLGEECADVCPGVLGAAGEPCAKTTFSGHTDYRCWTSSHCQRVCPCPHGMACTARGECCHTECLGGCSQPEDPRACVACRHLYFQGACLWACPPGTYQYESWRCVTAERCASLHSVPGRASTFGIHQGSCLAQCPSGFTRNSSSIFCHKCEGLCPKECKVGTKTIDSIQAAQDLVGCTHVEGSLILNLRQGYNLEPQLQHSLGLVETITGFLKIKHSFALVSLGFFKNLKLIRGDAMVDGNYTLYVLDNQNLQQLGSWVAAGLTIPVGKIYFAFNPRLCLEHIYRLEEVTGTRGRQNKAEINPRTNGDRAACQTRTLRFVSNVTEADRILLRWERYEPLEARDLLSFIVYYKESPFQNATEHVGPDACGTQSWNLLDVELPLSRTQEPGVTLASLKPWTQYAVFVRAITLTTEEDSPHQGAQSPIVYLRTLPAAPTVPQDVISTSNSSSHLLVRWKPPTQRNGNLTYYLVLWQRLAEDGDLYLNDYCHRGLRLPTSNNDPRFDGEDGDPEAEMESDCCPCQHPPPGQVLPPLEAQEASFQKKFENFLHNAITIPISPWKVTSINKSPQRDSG
Chain of Insulin receptor-related protein (Homo sapiens) (P14616 747-1297 limits assumed): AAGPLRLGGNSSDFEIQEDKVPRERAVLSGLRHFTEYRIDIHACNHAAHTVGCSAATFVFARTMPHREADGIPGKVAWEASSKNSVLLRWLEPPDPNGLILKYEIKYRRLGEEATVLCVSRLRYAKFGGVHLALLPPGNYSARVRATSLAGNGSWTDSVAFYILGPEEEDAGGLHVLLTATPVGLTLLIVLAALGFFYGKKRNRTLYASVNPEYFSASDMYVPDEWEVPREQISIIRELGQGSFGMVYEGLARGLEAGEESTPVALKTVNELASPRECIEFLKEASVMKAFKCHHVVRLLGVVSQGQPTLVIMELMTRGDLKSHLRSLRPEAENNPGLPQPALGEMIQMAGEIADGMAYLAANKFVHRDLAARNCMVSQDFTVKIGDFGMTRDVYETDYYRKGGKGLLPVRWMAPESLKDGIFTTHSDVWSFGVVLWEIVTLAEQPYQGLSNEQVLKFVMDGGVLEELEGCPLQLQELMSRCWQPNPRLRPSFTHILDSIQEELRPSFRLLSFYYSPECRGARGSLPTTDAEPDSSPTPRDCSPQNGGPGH
Chain of Tyrosine-protein kinase FRK (Homo sapiens) (P42685 whole entry): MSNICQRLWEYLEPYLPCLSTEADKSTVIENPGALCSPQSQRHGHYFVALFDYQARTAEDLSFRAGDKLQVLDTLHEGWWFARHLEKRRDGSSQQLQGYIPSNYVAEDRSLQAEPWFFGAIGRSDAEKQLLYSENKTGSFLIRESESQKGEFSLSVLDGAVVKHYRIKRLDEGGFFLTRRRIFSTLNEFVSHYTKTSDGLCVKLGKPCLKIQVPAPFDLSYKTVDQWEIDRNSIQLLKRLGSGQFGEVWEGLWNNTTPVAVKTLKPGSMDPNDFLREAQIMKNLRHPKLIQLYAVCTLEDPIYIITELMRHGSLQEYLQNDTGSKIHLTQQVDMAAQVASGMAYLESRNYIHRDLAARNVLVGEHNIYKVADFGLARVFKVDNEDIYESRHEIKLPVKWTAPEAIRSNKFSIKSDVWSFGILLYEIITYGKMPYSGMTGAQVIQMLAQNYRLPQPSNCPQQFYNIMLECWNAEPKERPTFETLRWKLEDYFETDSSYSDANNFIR
Chain of Serine/threonine-protein kinase N2 (Q16513 whole entry, looked up): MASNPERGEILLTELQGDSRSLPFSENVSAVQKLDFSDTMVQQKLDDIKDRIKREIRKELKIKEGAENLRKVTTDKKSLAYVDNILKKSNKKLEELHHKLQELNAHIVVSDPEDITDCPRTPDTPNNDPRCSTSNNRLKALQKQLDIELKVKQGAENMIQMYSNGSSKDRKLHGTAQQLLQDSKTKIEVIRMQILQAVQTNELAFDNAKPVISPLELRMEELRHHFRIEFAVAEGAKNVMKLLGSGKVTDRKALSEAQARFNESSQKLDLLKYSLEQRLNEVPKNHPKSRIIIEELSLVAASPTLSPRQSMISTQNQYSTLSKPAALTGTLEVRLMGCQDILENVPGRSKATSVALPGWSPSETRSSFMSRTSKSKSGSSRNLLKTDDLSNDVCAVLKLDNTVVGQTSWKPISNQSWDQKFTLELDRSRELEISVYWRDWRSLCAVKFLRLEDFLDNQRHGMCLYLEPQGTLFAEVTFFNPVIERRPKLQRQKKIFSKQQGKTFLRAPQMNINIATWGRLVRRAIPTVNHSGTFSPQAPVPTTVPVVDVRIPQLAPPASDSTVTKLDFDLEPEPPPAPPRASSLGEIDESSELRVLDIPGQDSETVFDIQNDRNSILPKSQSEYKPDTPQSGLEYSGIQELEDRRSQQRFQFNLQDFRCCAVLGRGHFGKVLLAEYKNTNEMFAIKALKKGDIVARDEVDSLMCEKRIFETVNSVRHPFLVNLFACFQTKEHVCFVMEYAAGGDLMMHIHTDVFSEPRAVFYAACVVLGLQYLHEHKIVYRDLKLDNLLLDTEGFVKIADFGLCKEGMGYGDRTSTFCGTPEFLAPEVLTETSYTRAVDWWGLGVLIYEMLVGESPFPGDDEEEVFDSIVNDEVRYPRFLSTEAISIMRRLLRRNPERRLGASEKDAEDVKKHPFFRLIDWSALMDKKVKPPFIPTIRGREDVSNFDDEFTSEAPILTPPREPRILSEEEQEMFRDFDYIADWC
Chain of Serine/threonine-protein kinase Nek7 (Homo sapiens) (Q8TDX7 whole entry, looked up): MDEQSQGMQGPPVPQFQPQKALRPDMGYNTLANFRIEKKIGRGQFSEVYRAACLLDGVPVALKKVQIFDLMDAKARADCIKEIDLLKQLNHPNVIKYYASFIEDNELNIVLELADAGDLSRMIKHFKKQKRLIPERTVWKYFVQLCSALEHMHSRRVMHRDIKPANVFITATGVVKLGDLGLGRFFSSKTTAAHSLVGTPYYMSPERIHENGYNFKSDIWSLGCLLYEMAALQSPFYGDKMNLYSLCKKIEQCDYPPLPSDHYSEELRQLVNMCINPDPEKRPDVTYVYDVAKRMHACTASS

SMILES: Cc1cc(C)cc([C@@H]2c3cc(C)ccc3NC(=O)CN2C(=O)c2ccc(Br)s2)c1
% of activity ([1]; at 1 µM): 97.3% | % of activity ([1]; at 10 µM): 105%

SMILES: Nc1cnc(N2CCc3cc(S(=O)(=O)Nc4c(F)cc(Cl)cc4F)cc(N4CCCC4=O)c32)nc1 [TP-020n]
% of control [2]: 100%

SMILES: CNC(=O)Nc1ccc(-c2nc(N3CC4CCC(C3)O4)c3cnn(C4CCC5(CC4)OCCO5)c3n2)cc1
% of inhibition [3]: -4% | % of inhibition [4]: 3%

SMILES: N#Cc1cccc(-c2c[nH]c3ncnc(N4CCOCC4)c23)c1
% of inhibition [5]: -5%

SMILES: C=CC(=O)Nc1cc(-n2c(=O)ccc3cnc4ccc(-c5ccc(NS(C)(=O)=O)cc5)cc4c32)ccc1C
% of control ([6]; at 1 µM): 100% | % of control ([6]; at 10 µM): 96%

SMILES: C=CC(=O)Nc1ccc(C(=O)Nc2[nH]nc3c2CN(C(=O)N[C@H](CN(C)C)c2ccccc2)C3(C)C)cc1
% of engagement [7]: -4.8%

SMILES: COc1cc(N(C)c2ccnc3ccc(C(F)(F)F)cc23)cc(OC)c1OC
% binding [8]: 76%

% of control ([9]; at 1 µM): 91% | % of control ([9]; at 5 µM): 61%
SMILES: C=CC(=O)Nc1cccc(C(=O)Nc2ccc(Nc3cc(-c4[nH]c(SC)nc4C)ccn3)cc2)c1
